From patent US4956363A, “Treatment of cognitive and behavioral disorders associated with aging and with dementia syndromes” (U C B S.A., priority 1988, dated 1990)

Assays:
male NMRI mice = assay: Toxicity, Irwin's test; assay type: in vivo
Protocol: Progressive doses of the compound to be tested are administered intraperitoneally to groups of three mice until the lethal dose is reached (dose which causes the death of two animals out of three within 48 hours).

[1] = tested on: amnesia induced by scopolamine; assay: Multiple-trial passive avoidance: mnemic retention (amnesia induced by scopolamine); details: compound i.p. at the dose of the line + scopolamine 0.5 mg i.p.
Protocol: To this end, the method of multiple-trial passive avoidance has been used. This method is well-known for evaluating the effects which a product exerts on the memory and learning (A. FINE et al., Proc. Natl. Acad. Sci. U.S.A., 82, (1985), 5227-5230).
The test is carried out on male Sprague-Dawley rats (160-200 g). which are kept in standard cages throughout the experiment.
The apparatus used is a transparent square cage with 35 cm sides and 25 cm high, fitted with a grid floor which can be electrified. An insulating rubber mat (10×17 cm) is placed on the floor in one of the corners of the cage.
Each animal is subjected to four tests at times 0, 4, 24 and 28 hours. In the first test (time 0), the animal is placed on the rubber mat and the time which it takes to decide to leave this position to explore the cage is recorded. After 20 seconds of exploration, the rat receives an electric shock (3 seconds duration) in the paws, causing a flight reaction. The rat is immediately removed from the apparatus and replaced in its original cage. In the course of the three subsequent tests (times: 4, 24 and 28 hours), the animal is replaced on the rubber mat and the time taken to leave this position is recorded. When the four paws of the animal rest on the grid, it receives an electric shock and is immediately removed from the apparatus.
At the start of the experiment, the rats are divided into 4 homogeneous groups of 15 animals. Thirty minutes before each test, each group of animals is subjected to a predetermined treatment:
Groups 1 and 2 are used in the first experiment and groups 3 and 4 are used in the second experiment.
The differences observed are analyzed statistically by the Mann-Whitney method.

[2] = tested on: learning of the avoidance reflex; assay: Multiple-trial passive avoidance: learning; assay type: in vivo, rats (male Sprague-Dawley); details: i.p. at the dose (mg/kg) of the line in Table V, 30 min before test; criterion 180 seconds on the mat
Protocol: To evaluate whether a compound can promote learning, the following test is carried out.
This experiment is repeated until the animal remains on the rubber mat for at least 180 seconds in order to avoid the electric shock. The learning is expressed by the average number of trials needed to reach a period of 180 seconds remaining on the mat.
A period of remaining on the rubber mat of 180 seconds is regarded as being the maximum performance which can be realized by the animal to avoid the electric shock. Rats which remain on the mat for this period have acquired the avoidance reflex and are replaced in their original cage without receiving the electric shock.
group 1 receives an intraperitoneal injection of physiological salt solution:
group 2 receives an intraperitoneal injection of the compound to be tested:
Columns 3 and 4 show the results obtained in the test used to evaluate the learning. The figures indicate the average number of trials needed for a control animal (group 1) or an animal treated (group 2) with the compound to learn to remain on the rubber mat for 180 seconds in order to avoid the electric shock. The results were analyzed by the Student test.

[3] = mice, i.p., death of two animals out of three within 48 hours

## CCCc1nc(NCCOC(N)=O)nc(N2CCOCC2)n1 [Compound 42, 2-[[2-[(Aminocarbonyl)oxy]ethyl]amino]-4-morpholino-6-propyl-1,3,5-triazine]
Male NMRI mice; [3]
  Lethal dose: > 931 mg/kg

## CCCc1nc(NC(CO)(CO)CO)nc(N2CCOCC2)n1 [Compound 12]
Male NMRI mice; [3]
  Lethal dose: 982 mg/kg

## CCCc1nc(N2CCOCC2)nc(N(C)C(C)=O)n1 [listing 1 of 2 here]
Male NMRI mice; [3]
  Lethal dose: 838 mg/kg
[1]
  Period of remaining on the mat, group 4, 24 hours: 34.7 s
  Period of remaining on the mat, group 4, 28 hours: 44.5 s
[2]
  Learning, average number of trials (group 2): 2.07

## CCCc1nc(N2CCOCC2)nc(N(C)C(=O)c2ccc(OC)cc2)n1 [Compound 32]
Male NMRI mice; [3]
  Lethal dose: 1222 mg/kg

## CCCc1nc(NCCOC(=O)Cc2ccccc2)nc(N2CCOCC2)n1 [Compound 40]
Male NMRI mice; [3]
  Lethal dose: 1157 mg/kg

## CCCc1nc(N2CCOCC2)nc(N(CCO)Cc2ccccc2)n1 [Compound 14]
Male NMRI mice; [3]
  Lethal dose: > 1073 mg/kg

## CCCc1nc(N2CCOCC2)nc(N2CCCC2CO)n1 (stereo not drawn) [Compound 19]
Male NMRI mice; [3]
  Lethal dose: 1031 mg/kg

## CCCc1nc(NC(CC)CO)nc(N2CCOCC2)n1 (stereo not drawn)
Male NMRI mice; [3]
  Lethal dose: 886 mg/kg
[1]
  Period of remaining on the mat, group 4, 24 hours: 22.5 s
  Period of remaining on the mat, group 4, 28 hours: 52.1 s
[2]
  Learning, average number of trials (group 2): 2.57

## CCCc1nc(NCCOC)nc(N2CCOCC2)n1 [Compound 10, 2-[(2-methoxyethyl)amino]-4-morpholino-6-propyl-1,3,5-triazine]
Male NMRI mice; [3]
  Lethal dose: 844 mg/kg
[1]
  Period of remaining on the mat, group 4, 4 hours: 15.7 s
  Period of remaining on the mat, group 4, 24 hours: 31.1 s
  Period of remaining on the mat, group 4, 28 hours: 34.1 s
[2]
  Learning, average number of trials (group 2): 2.07

## CCCc1nc(NCC(O)CO)nc(N2CCOCC2)n1 (stereo not drawn) [Compound 11]
Male NMRI mice; [3]
  Lethal dose: 892 mg/kg

## CCCc1nc(NC(=O)c2ccc(Cl)cc2)nc(N2CCOCC2)n1 [Compound 29]
Male NMRI mice; [3]
  Lethal dose: 398 mg/kg

## CCCc1nc(NC[C@H](C)O)nc(N2CCOCC2)n1 [Compound 16, (S)-3-[(4-morpholino-6-propyl-1,3,5-triazin-2-yl)amino]-2-propanol]
Male NMRI mice; [3]
  Lethal dose: 844 mg/kg

## CCCc1nc(NC(CO)C(O)c2ccccc2)nc(N2CCOCC2)n1 (stereo not drawn) [Compound 15]
Male NMRI mice; [3]
  Lethal dose: 1121 mg/kg

## CCCc1nc(NC(=O)C(C)C)nc(N2CCOCC2)n1 [Compound 24]
Male NMRI mice; [3]
  Lethal dose: 880 mg/kg

## CCCc1nc(NC(=O)Cc2ccccc2)nc(N2CCOCC2)n1 [Compound 23]
Male NMRI mice; [3]
  Lethal dose: > 1024 mg/kg

## CCCc1nc(NO)nc(N2CCOCC2)n1 [Compound 2, 2-(hydroxyamino)-4-morpholino-6-propyl-1,3,5-triazine]
Male NMRI mice; [3]
  Lethal dose: 718 mg/kg

## CCCc1nc(NC(=O)c2ccc(C)c(C)c2)nc(N2CCOCC2)n1 [Compound 36]
Male NMRI mice; [3]
  Lethal dose: 1174 mg/kg

## CCCc1nc(NCCO)nc(N2CCOCC2)n1
Male NMRI mice; [3]
  Lethal dose: 802 mg/kg
[1]
  Period of remaining on the mat, group 4, 4 hours: 44.8 s
  Period of remaining on the mat, group 4, 24 hours: 61.3 s
  Period of remaining on the mat, group 4, 28 hours: 102.7 s
[2]
  Learning, average number of trials (group 2): 1.53

## CCCc1nc(NC(C)(CO)CO)nc(N2CCOCC2)n1 [Compound 13]
Male NMRI mice; [3]
  Lethal dose: 934 mg/kg

## CCCc1nc(N2CCOCC2)nc(N(CCOC(C)=O)C(C)=O)n1
Male NMRI mice; [3]
  Lethal dose: 351 mg/kg

## CCCc1nc(NCCCO)nc(N2CCOCC2)n1 [Compound 3]
Male NMRI mice; [3]
  Lethal dose: 844 mg/kg

## CCCc1nc(NC[C@@H](C)O)nc(N2CCOCC2)n1 [Compound 17, (R)-3-[(4-morpholino-6-propyl-1,3.5-triazin-2-yl)amino]-2-propanol]
Male NMRI mice; [3]
  Lethal dose: 844 mg/kg

## CCCc1nc(NC(=O)Oc2ccccc2)nc(N2CCOCC2)n1 [Compound 28, phenyl (4-morpholino-6-propyl-1,3,5-triazin-2-yl)carbamate]
Male NMRI mice; [3]
  Lethal dose: > 1030 mg/kg

## CCCc1nc(N2CCOCC2)nc(N(C)C(=O)C(C)C)n1
Male NMRI mice; [3]
  Lethal dose: 922 mg/kg

## CCCc1nc(NC(C)=O)nc(N2CCOCC2)n1 [listing 1 of 2 here]
Male NMRI mice; [3]
  Lethal dose: 996 mg/kg
[1]
  Period of remaining on the mat, group 4, 4 hours: 60.4 s
  Period of remaining on the mat, group 4, 24 hours: 74.6 s
  Period of remaining on the mat, group 4, 28 hours: 102.4 s
[2]
  Learning, average number of trials (group 2): 1.53

## CCCc1nc(NC(=O)c2ccccc2)nc(N2CCOCC2)n1.Cl
Male NMRI mice; mouse, in vivo, ip
  Lethal dose: 1091 mg/kg
[1]
  Period of remaining on the mat, group 4, 4 hours: 70.9 s
  Period of remaining on the mat, group 4, 24 hours: 82.8 s
  Period of remaining on the mat, group 4, 28 hours: 137.6 s
[2]
  Learning, average number of trials (group 2): 1.0

## CCCc1nc(N2CCOCC2)nc(N(C)C(=O)c2ccccc2)n1.Cl
Male NMRI mice; mouse, in vivo, ip
  Lethal dose: 1133 mg/kg
[1]; 0 h
  Period of remaining on the mat, group 4, time 0: 11.3 s
[1]
  Period of remaining on the mat, group 4, 4 hours: 88.6 s
  Period of remaining on the mat, group 4, 24 hours: 111.5 s
  Period of remaining on the mat, group 4, 28 hours: 133.5 s
[2]
  Learning, average number of trials (group 2): 1.13

## CCCc1nc(NC(=O)c2ccc(C)cc2)nc(N2CCOCC2)n1 [Compound 33]
Male NMRI mice; [3]
  Lethal dose: 1132 mg/kg

## CCCc1nc(NC(C)=O)nc(N2CCOCC2)n1 [listing 2 of 2 here]
Male NMRI mice; [3]
  Lethal dose: 905 mg/kg

## CCCc1nc(NCC2(O)CCCCC2)nc(N2CCOCC2)n1 [Compound 18]
Male NMRI mice; [3]
  Lethal dose: 1007 mg/kg

## CCCc1nc(N2CCOCC2)nc(N(C)C(C)=O)n1 [listing 2 of 2 here]
Male NMRI mice; [3]
  Lethal dose: 947 mg/kg

## CCCc1nc(N2CCOCC2)nc(N(C)C(=O)c2ccc(OC)c(OC)c2)n1 [Compound 35]
Male NMRI mice; [3]
  Lethal dose: 401 mg/kg

## CCCc1nc(NCC(C)O)nc(N2CCOCC2)n1 (stereo not drawn) [Compound 5]
Male NMRI mice; [3]
  Lethal dose: 563 mg/kg

## CCCc1nc(N2CCOCC2)nc(N(C)C(=O)c2ccc(Cl)cc2)n1 [Compound 30]
Male NMRI mice; [3]
  Lethal dose: 1125 mg/kg

## CCCc1nc(NCCOC(=O)c2ccccc2)nc(N2CCOCC2)n1 [Compound 39]
Male NMRI mice; [3]
  Lethal dose: > 1114 mg/kg

## CCCc1nc(N2CCOCC2)nc(N(C)C(=O)c2ccc(C)cc2)n1 [Compound 34]
Male NMRI mice; [3]
  Lethal dose: 1174 mg/kg

## CCCc1nc(NCCCCO)nc(N2CCOCC2)n1 [Compound 4]
Male NMRI mice; [3]
  Lethal dose: 886 mg/kg

## CCCc1nc(NN(C)C)nc(N2CCOCC2)n1
Male NMRI mice; [3]
  Lethal dose: 799 mg/kg
[1]
  Period of remaining on the mat, group 4, 4 hours: 55.3 s
  Period of remaining on the mat, group 4, 24 hours: 57.7 s
  Period of remaining on the mat, group 4, 28 hours: 87.9 s
[2]
  Learning, average number of trials (group 2): 1.53

## CCCc1nc(NC(=O)N(C)C)nc(N2CCOCC2)n1 [Compound 41, N,N-Dimethyl-N'-(4-morpholino-6-propyl-1,3,5-triazin-2-yl)-urea]
Male NMRI mice; [3]
  Lethal dose: 294 mg/kg
[1]
  Period of remaining on the mat, group 4, 4 hours: 15.8 s
  Period of remaining on the mat, group 4, 24 hours: 27.3 s
  Period of remaining on the mat, group 4, 28 hours: 66.3 s
[2]
  Learning, average number of trials (group 2): 1.33

## CCCc1nc(NCCOC(C)=O)nc(N2CCOCC2)n1
Male NMRI mice; [3]
  Lethal dose: 928 mg/kg
[1]
  Period of remaining on the mat, group 4, 24 hours: 44.4 s
  Period of remaining on the mat, group 4, 28 hours: 49.9 s
[2]
  Learning, average number of trials (group 2): 1.3

## CCCc1nc(NCC(O)CC)nc(N2CCOCC2)n1 (stereo not drawn) [Compound 6]
Male NMRI mice; [3]
  Lethal dose: 886 mg/kg

## CCCc1nc(N(C)CCO)nc(N2CCOCC2)n1
Male NMRI mice; [3]
  Lethal dose: 844 mg/kg
[1]
  Period of remaining on the mat, group 4, 4 hours: 67.9 s
  Period of remaining on the mat, group 4, 24 hours: 62.7 s
  Period of remaining on the mat, group 4, 28 hours: 160.3 s
[2]
  Learning, average number of trials (group 2): 2.0

## CCCc1nc(NC(=O)c2ccc(OC)cc2)nc(N2CCOCC2)n1 [Compound 31]
Male NMRI mice; [3]
  Lethal dose: 511 mg/kg

## CCCc1nc(NCCOC(=O)C(C)C)nc(N2CCOCC2)n1 [Compound 38]
Male NMRI mice; [3]
  Lethal dose: > 1012 mg/kg

## CCCc1nc(NC(C)(C)CO)nc(N2CCOCC2)n1 [Compound 8]
Male NMRI mice; [3]
  Lethal dose: 886 mg/kg
